In BindingDB's records for doi:10.1021/acschembio.7b00385 (Novartis Pharma, 2017):

How the values were obtained:
Test in all cases: Liquid growth assay
Conditions in all cases: 30 °C
Actin = Actin (Saccharomyces cerevisiae (strain ATCC 204508 / S288c), UniProt P60010)
Experimental: (§1) Saturated ACT1 wild type (WT) as well as engineered ACT1 R183K (R183K) and ACT1 R335K (R335K) cultures were adjusted to 10 OD600 and 3 uL of serial 1:3 dilutions spotted on YPD agar supplemented with indicated concentrations of Chivosazole F. Growth was scored after 3 days incubation at 30 °C.

Actin [R183K] = Actin [R183K] (Saccharomyces cerevisiae (strain ATCC 204508 / S288c), UniProt P60010, R183K)
Experimental: as §1

Actin [R335K] = Actin [R335K] (Saccharomyces cerevisiae (strain ATCC 204508 / S288c), UniProt P60010, R335K)
Experimental: as §1

Row | Compound | IC50 (Actin) | IC50 (Actin [R183K]) | IC50 (Actin [R335K])
1 | C/C1=C\[C@@H](C)[C@@H](C)OC(=O)C[C@H](c2ccc(O)cc2)NC(=O)[C@@H](Cc2c[nH]c3ccccc23)N(C)C(=O)[C@H](C)NC(=O)[C@@H](C)C1 [CHEBI:84382] | 16700 nM | 11900 nM | 15100 nM
2 | C/C1=C/C(=O)O[C@@H]2C[C@@H](CC[C@H](C)/C=C\C=C\CC1)O[C@@](O)([C@@H]1CSC(=O)N1)C2 [LAT-A] | 70 nM | 110 nM | 40 nM
3 | COC1CC(O)/C=C/C=C/C=C\C(C)C(C(C)C(O)CC(C)O)OC(=O)\C=C/C=C/C=C\C(C)=C\C(C)C(O)/C=C\C=C\c2coc(n2)C1C (centres undefined) [SCHEMBL1889389] | 140 nM | 380 nM | 270 nM
